Reference: patent US20240109900A1, “AZABICYCLIC SHP2 INHIBITORS” (IRBM S.P.A., priority 2021, published 2024)
Where two headings read alike, the source gives them in different places.

Tests used:
[1] = target: SHP-2 enzyme (Met1-Leu525) (Homo sapiens (Human), UniProt Q06124); assay: SHP2 inhibition enzymatic assay; format: biochemical; conditions: 0.5 nM SHP-2 activated by 500 nM IRS1 peptide, 75 μM DiFMUP substrate; read-out: SHP2wt-IC50
In short: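 Compounds were preincubated 30 min with 0.5 nM SHP-2 (Met1-Leu525) plus 500 nM IRS1 activating peptide (pH 7.2 HEPES, 5 mM DTT), then 75 μM DiFMUP substrate reacted 30 min at room temperature. After bpV quench, DiFMUP fluorescence gave % inhibition; four-parameter logistic fit yielded IC50.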

[2] = test system: ERK phosphorylation in KYSE-520 cells; assay: Phospho-ERK cellular assay; format: cell-based; conditions: KYSE-520 cells, 2 h at 37° C., phospho-ERK1/2 (Thr202/Tyr204) TR-FRET, read-out: PERK IC50
In short: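 TR-FRET read-out of ERK1/2 Thr202/Tyr204 phosphorylation was taken after overnight antibody incubation at room temperature. Before that, KYSE-520 cells were treated 2 h at 37 °C with compound dilutions and lysed 30 min. Percent inhibition relative to vehicle and cell-free wells was fitted four-parametrically to give IC50.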

Chain of SHP-2 enzyme (Met1-Leu525) (Q06124 1-525): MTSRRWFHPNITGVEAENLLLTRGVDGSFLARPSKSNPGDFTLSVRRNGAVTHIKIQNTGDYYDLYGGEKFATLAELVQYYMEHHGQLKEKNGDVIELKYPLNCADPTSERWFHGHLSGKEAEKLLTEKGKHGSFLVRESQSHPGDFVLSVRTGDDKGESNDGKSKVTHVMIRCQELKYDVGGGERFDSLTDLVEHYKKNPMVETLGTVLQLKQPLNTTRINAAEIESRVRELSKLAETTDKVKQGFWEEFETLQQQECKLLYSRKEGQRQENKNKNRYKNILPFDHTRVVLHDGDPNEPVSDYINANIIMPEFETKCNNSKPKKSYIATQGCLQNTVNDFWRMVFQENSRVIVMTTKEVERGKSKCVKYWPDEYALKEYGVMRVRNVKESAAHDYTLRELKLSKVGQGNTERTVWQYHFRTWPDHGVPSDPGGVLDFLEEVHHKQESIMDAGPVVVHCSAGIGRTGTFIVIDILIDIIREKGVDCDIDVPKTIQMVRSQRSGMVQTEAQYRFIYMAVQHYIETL

Row | SMILES | IC50 [1] [nM] | IC50 ([2]; Homo sapiens, KYSE-520, 2 h) [nM] | IC50 [2] [nM]
1 | NC[C@]1(c2ccccc2F)[C@@H]2CCN(c3cnc4c(-c5ccnc(-c6cncnc6)c5Cl)n[nH]c4n3)C[C@@H]21 [Example 284, ((1S,6R,7R)-3-(3-(3-chloro-2-(pyrimidin-5-yl)pyridin-4-yl)-1H-pyrazolo[3,4-b]pyrazin-6-yl)-7-(2-fluorophenyl)-3-azabicyclo[4.1.0]heptan-7-yl)methanamine] | < 500 | < 1000 | –
2 | NC[C@]1(c2ccccc2F)[C@@H]2CCN(c3cnc4c(-c5ccc(-c6nn[nH]n6)cc5Cl)n[nH]c4n3)C[C@@H]21 [Example 285, ((1S,6R,7R)-3-(3-(2-chloro-4-(2H-tetrazol-5-yl)phenyl)-1H-pyrazolo[3,4-b]pyrazin-6-yl)-7-(2-fluorophenyl)-3-azabicyclo[4.1.0]heptan-7-yl)methanamine] | < 500 | > 5000 | –
3 | Cn1c(=O)[nH]c2cc(-c3n[nH]c4nc(N5CC[C@@H]6[C@H](C5)[C@@]6(CN)c5ccccc5F)cnc34)ccc21 [Example 289, 5-(6-((1S,6R,7R)-7-(aminomethyl)-7-(2-fluorophenyl)-3-azabicyclo[4.1.0]heptan-3-yl)-1H-pyrazolo[3,4-b]pyrazin-3-yl)-1-methyl-1,3-dihydro-2H-benzo[d]imidazol-2-one] | < 500 | < 1000 | –
4 | NC[C@]1(c2ccccc2F)[C@@H]2CCN(c3cnc4c(-c5ccc6ncncc6c5)n[nH]c4n3)C[C@@H]21 [Example 290, ((1S,6R,7R)-7-(2-fluorophenyl)-3-(3-(quinazolin-6-yl)-1H-pyrazolo[3,4-b]pyrazin-6-yl)-3-azabicyclo[4.1.0]heptan-7-yl)methanamine] | < 500 | < 1000 | –
5 | COc1cc(-c2n[nH]c3nc(N4CC[C@@H]5[C@H](C4)[C@@]5(CN)c4ccccc4F)cnc23)cc2[nH]c(=O)[nH]c12 [Example 292, 6-(6-((1S,6R,7R)-7-(aminomethyl)-7-(2-fluorophenyl)-3-azabicyclo[4.1.0]heptan-3-yl)-1H-pyrazolo[3,4-b]pyrazin-3-yl)-4-methoxy-1,3-dihydro-2H-benzo[d]imidazol-2-one] | < 500 | > 5000 | –
6 | NC[C@]1(c2ccccc2F)[C@@H]2CCN(c3cnc4c(-c5cccc6c5CCC(=O)N6)n[nH]c4n3)C[C@@H]21 [Example 293, 5-(6-((1S,6R,7R)-7-(aminomethyl)-7-(2-fluorophenyl)-3-azabicyclo[4.1.0]heptan-3-yl)-1H-pyrazolo[3,4-b]pyrazin-3-yl)-3,4-dihydroquinolin-2(1H)-one] | < 500 | < 1000 | –
7 | NC[C@]1(c2ccccc2F)[C@@H]2CCN(c3cnc4c(-c5ccc6cc[nH]c(=O)c6c5)n[nH]c4n3)C[C@@H]21 [Example 294, 7-(6-((1S,6R,7R)-7-(aminomethyl)-7-(2-fluorophenyl)-3-azabicyclo[4.1.0]heptan-3-yl)-1H-pyrazolo[3,4-b]pyrazin-3-yl)isoquinolin-1(2H)-one] | < 500 | < 1000 | –
8 | NC[C@]1(c2ccccc2F)[C@@H]2CCN(c3cnc4c(-c5ccc(-c6ccn[nH]6)cc5Cl)n[nH]c4n3)C[C@@H]21 [Example 296, ((1S,6R,7R)-3-(3-(2-chloro-4-(1H-pyrazol-5-yl)phenyl)-1H-pyrazolo[3,4-b]pyrazin-6-yl)-7-(2-fluorophenyl)-3-azabicyclo[4.1.0]heptan-7-yl)methanamine] | < 500 | < 1000 | –
9 | NC[C@]1(c2cc(F)cc(F)c2)[C@@H]2CCN(c3cnc4c(-c5ccc6c(=O)[nH]ccc6c5F)n[nH]c4n3)C[C@@H]21 [Example 306, 6-(6-((1S,6R,7R)-7-(aminomethyl)-7-(3,5-difluorophenyl)-3-azabicyclo[4.1.0]heptan-3-yl)-1H-pyrazolo[3,4-b]pyrazin-3-yl)-5-fluoroisoquinolin-1(2H)-one] | < 500 | < 1000 | –
10 | NC[C@]1(c2ccccc2F)[C@@H]2CCN(c3cnc4c(-c5ccc6nc(C(F)(F)F)ncc6c5)n[nH]c4n3)C[C@@H]21 [Example 309, ((1S,6R,7R)-7-(2-fluorophenyl)-3-(3-(2-(trifluoromethyl)quinazolin-6-yl)-1H-pyrazolo[3,4-b]pyrazin-6-yl)-3-azabicyclo[4.1.0]heptan-7-yl)methanamine] | < 500 | > 5000 | –
11 | NC[C@]1(c2ccccc2F)[C@@H]2CCN(c3cnc4c(-c5ccc6c(c5)CCN6)n[nH]c4n3)C[C@@H]21 [Example 312, ((1S,6R,7R)-7-(2-fluorophenyl)-3-(3-(indolin-5-yl)-1H-pyrazolo[3,4-b]pyrazin-6-yl)-3-azabicyclo[4.1.0]heptan-7-yl)methanamine] | < 500 | < 1000 | –
12 | Cn1c(=O)[nH]c2ccc(-c3n[nH]c4nc(N5CC[C@@H]6[C@H](C5)[C@@]6(CN)c5ccccc5F)cnc34)cc21 [Example 320, 6-(6-((1S,6R,7R)-7-(aminomethyl)-7-(2-fluorophenyl)-3-azabicyclo[4.1.0]heptan-3-yl)-1H-pyrazolo[3,4-b]pyrazin-3-yl)-1-methyl-1,3-dihydro-2H-benzo[d]imidazol-2-one] | < 500 | < 1000 | –
13 | NC[C@]1(c2ccccc2F)[C@@H]2CCN(c3cnc4c(-c5cc(F)c(O)c(F)c5)n[nH]c4n3)C[C@@H]21 [Example 322, 4-(6-((1S,6R,7R)-7-(aminomethyl)-7-(2-fluorophenyl)-3-azabicyclo[4.1.0]heptan-3-yl)-1H-pyrazolo[3,4-b]pyrazin-3-yl)-2,6-difluorophenol] | < 500 | < 1000 | –

More lines, now with the values ahead:

Row | IC50 [1] [nM] | IC50 ([2]; Homo sapiens, KYSE-520, 2 h) [nM] | IC50 [2] [nM] | SMILES
14 | < 500 | > 5000 | – | CN(C)C(=O)C1(CN)C2CCN(c3cnc4c(-c5ccc6nn(C)cc6c5Cl)n[nH]c4n3)CC21 (stereo not shown) [Example 286, 7-(aminomethyl)-3-(3-(4-chloro-2-methyl-2H-indazol-5-yl)-1H-pyrazolo[3,4-b]pyrazin-6-yl)-N,N-dimethyl-3-azabicyclo[4.1.0]heptane-7-carboxamide]
15 | < 500 | < 1000 | – | CNC(=O)C1(CN)C2CCN(c3cnc4c(-c5ccc6nn(C)cc6c5Cl)n[nH]c4n3)CC21 (stereo not shown) [Example 287, 7-(aminomethyl)-3-(3-(4-chloro-2-methyl-2H-indazol-5-yl)-1H-pyrazolo[3,4-b]pyrazin-6-yl)-N-methyl-3-azabicyclo[4.1.0]heptane-7-carboxamide]
16 | < 500 | < 1000 | – | Cn1cc2c(Cl)c(-c3n[nH]c4nc(N5CC[C@@H]6[C@H](C5)[C@@]6(CN)c5cc(F)cc(F)c5)cnc34)ccc2n1 [Example 291, ((1S,6R,7R)-3-(3-(4-chloro-2-methyl-2H-indazol-5-yl)-1H-pyrazolo[3,4-b]pyrazin-6-yl)-7-(3,5-difluorophenyl)-3-azabicyclo[4.1.0]heptan-7-yl)methanamine]
17 | < 500 | < 1000 | – | NC[C@]1(c2ccccc2F)[C@@H]2CCN(c3cnc4c(-c5ccc(-c6noc(O)n6)cc5Cl)n[nH]c4n3)C[C@@H]21 [Example 295, 3-(4-(6-((1S,6R,7R)-7-(aminomethyl)-7-(2-fluorophenyl)-3-azabicyclo[4.1.0]heptan-3-yl)-1H-pyrazolo[3,4-b]pyrazin-3-yl)-3-chlorophenyl)-1,2,4-oxadiazol-5-ol]
18 | < 500 | < 1000 | – | Cn1cc(-c2ccc(-c3n[nH]c4nc(N5CC[C@@H]6[C@H](C5)[C@@]6(CN)c5ccccc5F)cnc34)c(Cl)c2)cn1 [Example 297, ((1S,6R,7R)-3-(3-(2-chloro-4-(1-methyl-1H-pyrazol-4-yl)phenyl)-1H-pyrazolo[3,4-b]pyrazin-6-yl)-7-(2-fluorophenyl)-3-azabicyclo[4.1.0]heptan-7-yl)methanamine]
19 | < 500 | – | < 1000 | NC[C@]1(c2ccccc2F)[C@@H]2CCN(c3cnc4c(-c5ccc6[nH]c(=O)[nH]c6c5Cl)n[nH]c4n3)C[C@@H]21 [Example 302]
20 | < 500 | – | < 1000 | NC[C@]1(c2ccccc2F)[C@@H]2CCN(c3cnc4c(-c5ccc6c(c5Cl)NCCO6)n[nH]c4n3)C[C@@H]21 [Example 311]
21 | < 500 | < 1000 | – | Cn1ccc2c(-c3n[nH]c4nc(N5CC[C@@H]6[C@H](C5)[C@@]6(CN)c5ccccc5F)cnc34)ccc(F)c2c1=O [Example 315, 5-(6-((1S,6R,7R)-7-(aminomethyl)-7-(2-fluorophenyl)-3-azabicyclo[4.1.0]heptan-3-yl)-1H-pyrazolo[3,4-b]pyrazin-3-yl)-8-fluoro-2-methylisoquinolin-1(2H)-one]
22 | < 500 | < 1000 | – | Cn1ccc2c(F)c(-c3n[nH]c4nc(N5CC[C@@H]6[C@H](C5)[C@@]6(CN)c5ccccc5F)cnc34)ccc2c1=O [Example 316, 6-(6-((1S,6R,7R)-7-(aminomethyl)-7-(2-fluorophenyl)-3-azabicyclo[4.1.0]heptan-3-yl)-1H-pyrazolo[3,4-b]pyrazin-3-yl)-5-fluoro-2-methylisoquinolin-1(2H)-one]
23 | < 500 | < 1000 | – | Cn1c(=O)n(C)c2c(Cl)c(-c3n[nH]c4nc(N5CC[C@@H]6[C@H](C5)[C@@]6(CN)c5ccccc5F)cnc34)ccc21 [Example 317, 5-(6-((1S,6R,7R)-7-(aminomethyl)-7-(2-fluorophenyl)-3-azabicyclo[4.1.0]heptan-3-yl)-1H-pyrazolo[3,4-b]pyrazin-3-yl)-4-chloro-1,3-dimethyl-1,3-dihydro-2H-benzo[d]imidazol-2-one]
